Experimental data taken from PubChem BioAssay AID330 (DTP/NCI, 2004).
“And” between values parts separate entries of the source, which are not always exact repeats. Equal entries are not always repeated. Inconclusive results and toxic doses are left out.

System: P388 leukemia ip, CD2F1 mice, survival T/C
Test: NCI In Vivo Anticancer Drug Screen. Data for tumor model P388 Leukemia (intraperitoneal) in CD2F1 (CDF1) mice
Settings: endpoint: median survival time, higher = longer survival
In short: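 Mice carrying the transplanted tumor received test compound or vehicle. Survival was recorded in each group, and the value is the treated-group measurement divided by that of the vehicle-treated control group.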

[1] = dose: 50.0 mg/kg/injection, schedule: Q01DX005 (ip), vehicle: Klucel (hydroxypropylcellulose) (HPC)
[2] = dose: 100.0 mg/kg/injection, schedule: Q01DX005 (ip), vehicle: Klucel (hydroxypropylcellulose) (HPC)
[3] = dose: 200.0 mg/kg/injection, schedule: Q01DX005 (ip), vehicle: Klucel (hydroxypropylcellulose) (HPC)
[4] = dose: 50.0 mg/kg/injection, schedule: Q01DX009 (ip), vehicle: Klucel (hydroxypropylcellulose) (HPC)
[5] = dose: 100.0 mg/kg/injection, schedule: Q01DX009 (ip), vehicle: Klucel (hydroxypropylcellulose) (HPC)
[6] = dose: 200.0 mg/kg/injection, schedule: Q01DX009 (ip), vehicle: Klucel (hydroxypropylcellulose) (HPC)
[7] = dose: 50.0 mg/kg/injection, schedule: Q01DX005 (ip), vehicle: saline with Tween-80
[8] = dose: 100.0 mg/kg/injection, schedule: Q01DX005 (ip), vehicle: saline with Tween-80
[9] = dose: 200.0 mg/kg/injection, schedule: Q01DX005 (ip), vehicle: saline with Tween-80
[10] = dose: 25.0 mg/kg/injection, schedule: Q01DX009 (ip), vehicle: saline with Tween-80
[11] = dose: 100.0 mg/kg/injection, schedule: Q01DX009 (ip), vehicle: saline with Tween-80
[12] = dose: 200.0 mg/kg/injection, schedule: Q01DX009 (ip), vehicle: saline with Tween-80
[13] = dose: 50.0 mg/kg/injection, schedule: Q01DX009 (ip), vehicle: saline with Tween-80
[14] = dose: 50.0 mg/kg/injection, schedule: Q04DX003 (ip), vehicle: saline with Tween-80
[15] = dose: 60.0 mg/kg/injection, schedule: Q01DX005 (ip), vehicle: saline with Tween-80
[16] = dose: 120.0 mg/kg/injection, schedule: Q01DX005 (ip), vehicle: saline with Tween-80
[17] = dose: 240.0 mg/kg/injection, schedule: Q01DX005 (ip), vehicle: saline with Tween-80
[18] = dose: 60.0 mg/kg/injection, schedule: Q01DX005 (ip), vehicle: saline

With Cc1cc(N2C(=O)CSC2=S)ccc1Cl the T/C (dose: 50.0 mg/kg/injection, schedule: Q01DX009 (ip), vehicle: suspension in saline) was 105 % of control, the T/C (dose: 100.0 mg/kg/injection, schedule: Q01DX009 (ip), vehicle: suspension in saline) was 99 % of control and the T/C (dose: 200.0 mg/kg/injection, schedule: Q01DX009 (ip), vehicle: suspension in saline) was 106 % of control.
In the case of O=C1N=C2OC3(CCCCC3)OC(=O)N2C2(CCCCC2)O1, the T/C (dose: 12.5 mg/kg/injection, schedule: Q01DX009 (ip), vehicle: distilled water + Tween-80) is reported as 107 % of control, the T/C (dose: 25.0 mg/kg/injection, schedule: Q01DX009 (ip), vehicle: distilled water + Tween-80) is reported as 93 % of control and the T/C (dose: 50.0 mg/kg/injection, schedule: Q01DX009 (ip), vehicle: distilled water + Tween-80) is reported as 97 % of control. The T/C (dose: 100.0 mg/kg/injection, schedule: Q01DX009 (ip), vehicle: distilled water + Tween-80) was 100 % of control and 96 % of control and the T/C (dose: 200.0 mg/kg/injection, schedule: Q01DX009 (ip), vehicle: distilled water + Tween-80) was 109 % of control and 114 % of control.
For O=C(NCCCCNC(=O)C12CC3CC(CC(C3)C1)C2)C12CC3CC(CC(C3)C1)C2, the T/C [1] was 90 % of control, the T/C [2] was 90 % of control and the T/C [3] was 86 % of control.
In the case of CCC(C)C1C(=O)OC(C(Cl)(Cl)Cl)N1Cc1ccc(OC)cc1OC (configuration not stated), the T/C (dose: 100.0 mg/kg/injection, schedule: Q04DX003 (ip), vehicle: Klucel (hydroxypropylcellulose) (HPC)) is reported as 109 % of control, the T/C (dose: 200.0 mg/kg/injection, schedule: Q04DX003 (ip), vehicle: Klucel (hydroxypropylcellulose) (HPC)) is reported as 107 % of control and the T/C (dose: 400.0 mg/kg/injection, schedule: Q04DX003 (ip), vehicle: Klucel (hydroxypropylcellulose) (HPC)) is reported as 104 % of control.
In the case of O=c1ccnc[nH]1, the T/C (dose: 100.0 mg/kg/injection, schedule: Q04DX002 (ip), vehicle: saline with Tween-80) is reported as 105 % of control and the T/C (dose: 200.0 mg/kg/injection, schedule: Q04DX002 (ip), vehicle: saline with Tween-80) is reported as 93 % of control.
For Cc1ccc(S(=O)(=O)N/N=C2/C=CC3(CCCCC3)CC2)cc1, the T/C [4] was 109 % of control, the T/C [5] was 102 % of control and the T/C [6] was 111 % of control.
In the case of COc1ccc(CCNCc2cccc(O)c2)cc1OC, the T/C [4] is reported as 90 % of control, the T/C [5] is reported as 92 % of control and the T/C [6] is reported as 88 % of control.
With Cc1cc(NC(=O)c2ccc(C(=O)Nc3ccc(N=Nc4cc(S(=O)(=O)O)c5cccc(S(=O)(=O)O)c5c4)c(C)c3)cc2)ccc1N=Nc1cc(S(=O)(=O)O)c2cccc(S(=O)(=O)O)c2c1 the T/C [7] was 94 % of control, the T/C [8] was 93 % of control and the T/C [9] was 98 % of control.
In the case of Cn1c(O)c2c(c1O)C(=Nc1ccccc1)c1ccccc1C2=O, the T/C [1] is reported as 86 % of control, the T/C [2] is reported as 89 % of control and the T/C [3] is reported as 94 % of control.
In the case of O=C1[C@H]2CCC[C@H]2[C@H]2CCC[C@@H]12, the T/C [10] is reported as 112 % of control, the T/C [11] is reported as 119 % of control and the T/C [12] is reported as 105 % of control.
O=C1OC2C(I)C3CC1C2C3 (configuration not stated) was tested, and the T/C [10] was 100 % of control, the T/C (dose: 25.0 mg/kg/injection, schedule: Q04DX003 (ip), vehicle: saline with Tween-80) was 104 % of control and the T/C [13] was 110 % of control. For the same molecule, the T/C [14] was 104 % of control.
In the case of CS(=O)(=O)N1CCCN(S(C)(=O)=O)COC1, the T/C [15] is reported as 99 % of control, the T/C [16] is reported as 101 % of control and the T/C [17] is reported as 101 % of control.
For CC(C)c1nc2c(c(=O)o1)CCS2, the T/C [1] was 100 % of control, the T/C [2] was 98 % of control and the T/C [3] was 98 % of control.
CC(C)CC1N=C(N(C)N=O)OP1(=O)NNc1ncccn1 (configuration not stated) was tested, and the T/C [18] was 97 % of control, the T/C (dose: 120.0 mg/kg/injection, schedule: Q01DX005 (ip), vehicle: saline) was 102 % of control and the T/C (dose: 240.0 mg/kg/injection, schedule: Q01DX005 (ip), vehicle: saline) was 99 % of control.
In the case of Clc1ccc2c(c1)Oc1ccccc1C=N2, the T/C [13] is reported as 107 % of control, the T/C [11] is reported as 98 % of control and the T/C [12] is reported as 96 % of control.
In the case of C[n+]1ccc(NC(=O)c2ccc(NC(=O)c3cccc(C(=O)Nc4ccc(C(=O)Nc5cc[n+](C)cc5)cc4)c3)cc2)cc1, the T/C (dose: 6.25 mg/kg/injection, schedule: Q04DX003 (ip), vehicle: saline with Tween-80) is reported as 112 % of control, the T/C (dose: 12.5 mg/kg/injection, schedule: Q04DX003 (ip), vehicle: saline with Tween-80) is reported as 120 % of control and the T/C [10] is reported as 159 % of control. The T/C [13] was 195 % of control, the T/C [14] was 154 % of control and the T/C (dose: 66.0 mg/kg/injection, schedule: Q04DX003 (ip), vehicle: saline with Tween-80) was 170 % of control.
With CC1(C)C=Cc2c(cc(O)c3c(=O)c4cccnc4oc23)O1 the T/C [1] was 90 % of control, the T/C [2] was 102 % of control and the T/C [3] was 90 % of control.
With CC12CCC(C3(C)CCC4CC3(O)C4)C(CO)C1CCC2=O (configuration not stated) the T/C (dose: 7.5 mg/kg/injection, schedule: Q01DX005 (ip), vehicle: Klucel (hydroxypropylcellulose) (HPC)) was 96 % of control, the T/C (dose: 15.0 mg/kg/injection, schedule: Q01DX005 (ip), vehicle: Klucel (hydroxypropylcellulose) (HPC)) was 103 % of control and the T/C (dose: 30.0 mg/kg/injection, schedule: Q01DX005 (ip), vehicle: Klucel (hydroxypropylcellulose) (HPC)) was 98 % of control.
CC1CC(C)CN(C)C1 (configuration not stated) was tested, and the T/C (dose: 50.0 mg/kg/injection, schedule: Q01DX005 (ip), vehicle: saline) was 100 % of control and the T/C (dose: 100.0 mg/kg/injection, schedule: Q01DX005 (ip), vehicle: saline) was 100 % of control.
In the case of COc1cc2c(cc1OC)C13CCN4C=C5CCOC6CC(=O)N2C1C6C5CC43 (configuration not stated), the T/C (dose: 15.0 mg/kg/injection, schedule: Q01DX005 (ip), vehicle: saline) is reported as 97 % of control, the T/C (dose: 30.0 mg/kg/injection, schedule: Q01DX005 (ip), vehicle: saline) is reported as 98 % of control and the T/C [18] is reported as 100 % of control and 103 % of control.
With COc1ccc2c3c(cnc2c1)C(=O)CCC3 the T/C [7] was 104 % of control, the T/C [8] was 101 % of control and the T/C [9] was 96 % of control.
With NP(=O)(Oc1c2occc2cc2ccc(=O)oc12)N(CCCl)CCCl (configuration not stated) the T/C [7] was 111 % of control, the T/C [8] was 99 % of control and the T/C [9] was 114 % of control.
For Cc1ccc(S(=O)(=O)N2CCCCN(S(=O)(=O)c3ccc(C)cc3)COC2)cc1, the T/C [1] was 101 % of control, the T/C [2] was 101 % of control and the T/C [3] was 102 % of control.
In the case of N#CS.[Cr+3].[NH-]CC[NH-].[NH-]CC[NH-].[NH-]CC[NH-], the T/C [13] is reported as 104 % of control, the T/C [11] is reported as 95 % of control and the T/C (dose: 100.0 mg/kg/injection, schedule: Q04DX003 (ip), vehicle: saline with Tween-80) is reported as 100 % of control. The T/C (dose: 200.0 mg/kg/injection, schedule: Q04DX003 (ip), vehicle: saline with Tween-80) was 104 % of control.
In the case of CC1C(O)CC23COC(=O)C2=CCCC3C1(C)CCC1=CC(=O)OC1 (configuration not stated), the T/C (dose: 8.75 mg/kg/injection, schedule: Q01DX005 (ip), vehicle: Klucel (hydroxypropylcellulose) (HPC)) is reported as 101 % of control, the T/C (dose: 17.5 mg/kg/injection, schedule: Q01DX005 (ip), vehicle: Klucel (hydroxypropylcellulose) (HPC)) is reported as 106 % of control and the T/C (dose: 35.0 mg/kg/injection, schedule: Q01DX005 (ip), vehicle: Klucel (hydroxypropylcellulose) (HPC)) is reported as 92 % of control. For the same molecule, the T/C (dose: 70.0 mg/kg/injection, schedule: Q01DX005 (ip), vehicle: Klucel (hydroxypropylcellulose) (HPC)) was 97 % of control.
With CC(=O)N/N=C(\C(=O)OC(=NC1CCCCC1)NC1CCCCC1)c1ccccc1 the T/C [1] was 87 % of control, the T/C [2] was 87 % of control and the T/C [3] was 91 % of control.
With Cc1nnsc1C(=O)NCc1c(F)cccc1Cl the T/C [1] was 97 % of control, the T/C [2] was 99 % of control and the T/C [3] was 98 % of control.
CN1CCN(c2ccc3nc(-c4ccc5nc(-c6ccc(O)cc6)[nH]c5c4)[nH]c3c2)CC1 was tested, and the T/C (dose: 50.0 mg/kg/injection, schedule: Q01DX009 (ip), vehicle: saline) was 153 % of control.
In the case of O=C1CSC(COc2ccc(Cl)cc2Cl)O1 (configuration not stated), the T/C (dose: 25.0 mg/kg/injection, schedule: Q01DX009 (ip), vehicle: Klucel (hydroxypropylcellulose) (HPC)) is reported as 100 % of control and the T/C [4] is reported as 97 % of control.
For COc1cccc(C(Nc2nncs2)Nc2nncs2)c1, the T/C [15] was 97 % of control, the T/C [16] was 97 % of control and the T/C [17] was 122 % of control.
In the case of CCCCOP(=O)(OCCCC)C(CC(=O)N(CCCC)CCCC)C(=O)N(CCCC)CCCC (configuration not stated), the T/C [7] is reported as 98 % of control and the T/C [8] is reported as 102 % of control.
N#CC(C(=O)C(=O)Nc1cccc(C(F)(F)F)c1)c1ccccc1 (configuration not stated) was tested, and the T/C [7] was 93 % of control and the T/C [8] was 100 % of control.
In the case of CCN(C=Nc1ccc(Cl)cc1C)CC, the T/C [4] is reported as 105 % of control and the T/C [5] is reported as 117 % of control.
With COCC(=O)c1ccccc1-c1ccccc1 the T/C [7] was 100 % of control, the T/C [8] was 103 % of control and the T/C [9] was 110 % of control.
